Experimental data reported in patent US9808003B2, “Herbicidally active 2-(substituted-phenyl)-cyclopentane-1,3-dione compounds and derivatives thereof” (Syngenta Limited, priority 2013, dated 2017).
“And” between values parts separate entries of the source, which are not always exact repeats. Equal values may be shown once.

Experiments:
Type in all cases: in vivo
[1] = test system: Alopecurus myosuroides (ALOMY); experiment: Test 1A glasshouse assay, post-emergence herbicidal activity; conditions: Alopecurus myosuroides, 312 h, application rate 250 g/ha, 13 days after application, visual (100%=total damage; 0%=no damage), read-out: Post-emergence Herbicidal Activity (% Phytotoxicity) ALOMY
Method in brief: (§1)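 Post-emergence spray at 8 d after sowing; vehicle acetone/water 50:50 + 0.5% Tween 20. Glasshouse 24/16 °C, 14 h light, 65% RH, watered 2×/day. Visual phytotoxicity (%) at 13 DAA.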

[2] = test system: Echinochloa crus-galli (ECHCG); experiment: as above; conditions: Echinochloa crus-galli, 312 h, application rate 250 g/ha, 13 days after application, visual (100%=total damage; 0%=no damage), read-out: Post-emergence Herbicidal Activity (% Phytotoxicity) ECHCG
Method in brief: as §1

Winter Wheat “Hereward” = experiment: Test 1B glasshouse assay, post-emergence herbicidal activity against cereal crops; conditions: for Post-emergence herbicidal activity against cereal crops, percentage phytotoxicity, Winter Wheat “Hereward”: 14 DAA
Method in brief: (§2)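 Visual percentage damage (100% = total, 0% = none) read 14 days after application, averaged over two replicates. Plants grown 14 days at 22/16 °C day/night before post-emergence spraying of unformulated compound (IF50/acetone, 0.5% v/v Adigor). Rates usually 60–120 g/ha; cloquintocet-mexyl 50 g/ha co-applied where stated.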

[3] = test system: Spring Barley “Harrington”; experiment: as above; conditions: for Post-emergence herbicidal activity against cereal crops, percentage phytotoxicity, Spring Barley “Harrington”: 14 DAA
Method in brief: as §2

Winter Barley “Suzuka” = experiment: as above; conditions: for Post-emergence herbicidal activity against cereal crops, percentage phytotoxicity, Winter Barley “Suzuka”: 14 DAA
Method in brief: as §2

Poa annua (POAAN) = experiment: Test 1B glasshouse assay, post-emergence herbicidal activity against grassy weeds; conditions: 14 DAA
Method in brief: (§3)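 Herbicide applied post-emergence at rates such as 60 g/ha (±50 g/ha cloquintocet-mexyl) or 90 and 120 g/ha (with safener), rates varying per compound. Plants kept at 22/16 °C, watered twice daily; percentage phytotoxicity scored visually after 14 days.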

[4] = test system: Alopecurus myosuroides (ALOMY); experiment: as above; conditions: 14 DAA
Method in brief: as §3

Setaria viridis (SETVI) = experiment: as above; conditions: 14 DAA
Method in brief: as §3

Avena fatua (AVEFA) = experiment: as above; conditions: 14 DAA
Method in brief: as §3

[5] = test system: Lolium multiflorum (LOLMU); experiment: as above; conditions: 14 DAA
Method in brief: as §3

[6] = herbicide 30 g/ha, cloquintocet-mexyl 50 g/ha
[7] = herbicide 45 g/ha, cloquintocet-mexyl 50 g/ha
[8] = herbicide 60 g/ha, cloquintocet-mexyl 0 g/ha
[9] = herbicide 60 g/ha, cloquintocet-mexyl 50 g/ha
[10] = 30 g/ha herbicide, 50 g/ha cloquintocet-mexyl
[11] = 45 g/ha herbicide, 50 g/ha cloquintocet-mexyl
[12] = 60 g/ha herbicide, 0 g/ha cloquintocet-mexyl
[13] = 60 g/ha herbicide, 50 g/ha cloquintocet-mexyl

SMILES: Cc1cc(C)c(C2C(=O)CC(CCNC(=O)c3ccc(Br)cn3)C2=O)c(C)c1 (racemic) [Compound A120, 5-bromo-N-{2-[2,4-dioxo-3-(2,4,6-trimethylphenyl)cyclopentyl]ethyl}pyridine-2-carboxamide]
- pest or weed control at 250 g/ha [1]: 100%
- pest or weed control at 250 g/ha [2]: 100%
- Percentage Phytotoxicity Winter Wheat “Hereward” (Winter Wheat “Hereward”; [6]): 38%
- Percentage Phytotoxicity Winter Wheat “Hereward” (Winter Wheat “Hereward”; [7]): 50%
- Percentage Phytotoxicity Winter Wheat “Hereward” (Winter Wheat “Hereward”; [8]): 68%
- Percentage Phytotoxicity Winter Wheat “Hereward” (Winter Wheat “Hereward”; [9]): 50%
- Percentage Phytotoxicity Spring Barley “Harrington” [3, 6]: 25%
- Percentage Phytotoxicity Spring Barley “Harrington” [3, 7]: 38%
- Percentage Phytotoxicity Spring Barley “Harrington” [3, 8]: 78%
- Percentage Phytotoxicity Spring Barley “Harrington” [3, 9]: 38%
- Percentage Phytotoxicity Winter Barley “Suzuka” (Winter Barley “Suzuka”; [6]): 15%
- Percentage Phytotoxicity Winter Barley “Suzuka” (Winter Barley “Suzuka”; [7]): 40%
- Percentage Phytotoxicity Winter Barley “Suzuka” (Winter Barley “Suzuka”; [8]): 88%
- Percentage Phytotoxicity Winter Barley “Suzuka” (Winter Barley “Suzuka”; [9]): 40%
- Post-emergence herbicidal activity, percentage phytotoxicity, POAAN (Poa annua (POAAN); [10]): 3%
- Post-emergence herbicidal activity, percentage phytotoxicity, POAAN (Poa annua (POAAN); [11]): 3%
- Post-emergence herbicidal activity, percentage phytotoxicity, POAAN (Poa annua (POAAN); [12]): 10%
- Post-emergence herbicidal activity, percentage phytotoxicity, POAAN (Poa annua (POAAN); [13]): 3%
- Post-emergence herbicidal activity, percentage phytotoxicity, ALOMY [4, 10]: 75%
- Post-emergence herbicidal activity, percentage phytotoxicity, ALOMY [4, 11]: 80%
- Post-emergence herbicidal activity, percentage phytotoxicity, ALOMY [4, 12]: 85%
- Post-emergence herbicidal activity, percentage phytotoxicity, ALOMY [4, 13]: 80%
- Post-emergence herbicidal activity, percentage phytotoxicity, SETVI (Setaria viridis (SETVI); [10]): 100%
- Post-emergence herbicidal activity, percentage phytotoxicity, SETVI (Setaria viridis (SETVI); [11]): 100%
- Post-emergence herbicidal activity, percentage phytotoxicity, SETVI (Setaria viridis (SETVI); [12]): 100%
- Post-emergence herbicidal activity, percentage phytotoxicity, SETVI (Setaria viridis (SETVI); [13]): 100%
- Post-emergence herbicidal activity, percentage phytotoxicity, AVEFA (Avena fatua (AVEFA); [10]): 75%
- Post-emergence herbicidal activity, percentage phytotoxicity, AVEFA (Avena fatua (AVEFA); [11]): 78%
- Post-emergence herbicidal activity, percentage phytotoxicity, AVEFA (Avena fatua (AVEFA); [12]): 85%
- Post-emergence herbicidal activity, percentage phytotoxicity, AVEFA (Avena fatua (AVEFA); [13]): 78%
- Post-emergence herbicidal activity, percentage phytotoxicity, LOLMU [5, 10]: 98%
- Post-emergence herbicidal activity, percentage phytotoxicity, LOLMU [5, 11]: 99%
- Post-emergence herbicidal activity, percentage phytotoxicity, LOLMU [5, 12]: 100%
- Post-emergence herbicidal activity, percentage phytotoxicity, LOLMU [5, 13]: 99%

SMILES: Cc1cc(C)c(C2C(=O)CC(CCNC(=O)c3cccc(F)n3)C2=O)c(C)c1 (racemic) [Compound A89]
- pest or weed control at 250 g/ha [1]: 100%
- pest or weed control at 250 g/ha [2]: 100%
- Post-emergence herbicidal activity against cereal crops, percentage phytotoxicity, Winter Wheat “Hereward” (Winter Wheat “Hereward”; [10]): 15%
- Post-emergence herbicidal activity against cereal crops, percentage phytotoxicity, Winter Wheat “Hereward” (Winter Wheat “Hereward”; [11]): 25%
- Post-emergence herbicidal activity against cereal crops, percentage phytotoxicity, Winter Wheat “Hereward” (Winter Wheat “Hereward”; [12]): 60%
- Post-emergence herbicidal activity against cereal crops, percentage phytotoxicity, Winter Wheat “Hereward” (Winter Wheat “Hereward”; [13]): 28%
- Percentage Phytotoxicity Winter Wheat “Hereward” (Winter Wheat “Hereward”; [6]): 10%
- Percentage Phytotoxicity Winter Wheat “Hereward” (Winter Wheat “Hereward”; [8]): 75%
- Percentage Phytotoxicity Winter Wheat “Hereward” (Winter Wheat “Hereward”; [9]): 25%
- Post-emergence herbicidal activity against cereal crops, percentage phytotoxicity, Spring Barley “Harrington” [3, 10]: 13%
- Post-emergence herbicidal activity against cereal crops, percentage phytotoxicity, Spring Barley “Harrington” [3, 11]: 55%
- Post-emergence herbicidal activity against cereal crops, percentage phytotoxicity, Spring Barley “Harrington” [3, 12]: 95%
- Post-emergence herbicidal activity against cereal crops, percentage phytotoxicity, Spring Barley “Harrington” [3, 13]: 85%
- Percentage Phytotoxicity Spring Barley “Harrington” [3, 6]: 13%
- Percentage Phytotoxicity Spring Barley “Harrington” [3, 8]: 88%
- Percentage Phytotoxicity Spring Barley “Harrington” [3, 9]: 43%
- Post-emergence herbicidal activity against cereal crops, percentage phytotoxicity, Winter Barley “Suzuka” (Winter Barley “Suzuka”; [10]): 8%
- Post-emergence herbicidal activity against cereal crops, percentage phytotoxicity, Winter Barley “Suzuka” (Winter Barley “Suzuka”; [11]): 20%
- Post-emergence herbicidal activity against cereal crops, percentage phytotoxicity, Winter Barley “Suzuka” (Winter Barley “Suzuka”; [12]): 95%
- Post-emergence herbicidal activity against cereal crops, percentage phytotoxicity, Winter Barley “Suzuka” (Winter Barley “Suzuka”; [13]): 73%
- Percentage Phytotoxicity Winter Barley “Suzuka” (Winter Barley “Suzuka”; [6]): 8%
- Percentage Phytotoxicity Winter Barley “Suzuka” (Winter Barley “Suzuka”; [8]): 90%
- Percentage Phytotoxicity Winter Barley “Suzuka” (Winter Barley “Suzuka”; [9]): 25%
- Post-emergence herbicidal activity, percentage phytotoxicity, POAAN (Poa annua (POAAN); [10]): 0%
- Post-emergence herbicidal activity, percentage phytotoxicity, POAAN (Poa annua (POAAN); [11]): 3%
- Post-emergence herbicidal activity, percentage phytotoxicity, POAAN (Poa annua (POAAN); [12]): 25% and 15%
- Post-emergence herbicidal activity, percentage phytotoxicity, ALOMY [4, 10]: 88% and 80%
- Post-emergence herbicidal activity, percentage phytotoxicity, ALOMY [4, 11]: 97%
- Post-emergence herbicidal activity, percentage phytotoxicity, ALOMY [4, 12]: 98% and 99%
- Post-emergence herbicidal activity, percentage phytotoxicity, ALOMY [4, 13]: 98%
- Post-emergence herbicidal activity, percentage phytotoxicity, SETVI (Setaria viridis (SETVI); [10]): 100% and 95%
- Post-emergence herbicidal activity, percentage phytotoxicity, SETVI (Setaria viridis (SETVI); [11]): 100%
- Post-emergence herbicidal activity, percentage phytotoxicity, SETVI (Setaria viridis (SETVI); [12]): 100% and 99%
- Post-emergence herbicidal activity, percentage phytotoxicity, SETVI (Setaria viridis (SETVI); [13]): 100%
- Post-emergence herbicidal activity, percentage phytotoxicity, AVEFA (Avena fatua (AVEFA); [10]): 83% and 85%
- Post-emergence herbicidal activity, percentage phytotoxicity, AVEFA (Avena fatua (AVEFA); [11]): 85%
- Post-emergence herbicidal activity, percentage phytotoxicity, AVEFA (Avena fatua (AVEFA); [12]): 90% and 97%
- Post-emergence herbicidal activity, percentage phytotoxicity, AVEFA (Avena fatua (AVEFA); [13]): 90% and 93%
- Post-emergence herbicidal activity, percentage phytotoxicity, LOLMU [5, 10]: 90% and 93%
- Post-emergence herbicidal activity, percentage phytotoxicity, LOLMU [5, 11]: 99%
- Post-emergence herbicidal activity, percentage phytotoxicity, LOLMU [5, 12]: 100%
- Post-emergence herbicidal activity, percentage phytotoxicity, LOLMU [5, 13]: 100% and 95%
